# Results reported in patent US20230381172A1, “COMBINATIONS OF BCL-2 INHIBITORS WITH CHEMOTHERAPEUTIC AGENTS” (RECURIUM IP HOLDINGS, LLC, priority 2020, published 2023).
# Key:
# MV4-11 cells = assay: In vitro cell assay, CellTiter-Glo cell viability, MV4-11; format: cell-based; details: 20,000 MV4-11 cells, 72 h, CTG; 25 nM Compound 5A, 2,272 nM azacitidine, single agent or combination of both
# Experimental: (§1) The cells were incubated with the indicated compound at the indicated concentration as described below. The combination indices (CI) were calculated using formula […]. A and B are the percent cell inhibition by single agent treatment, and AB is the percent cell inhibition by the combination.
# (§2) For each cell line, the cell viability was assessed using a CellTiter-Glo® (CTG) assay.
# RS4;11 cells = assay: In vitro cell assay, CellTiter-Glo cell viability, RS4;11; format: cell-based; details: 50,000 RS4;11 cells, 72 h, CTG; 5 nM Compound 5A, 1,500 nM azacitidine, single agent or combination of both
# Experimental: as §1, §2
# HL-60 cells = assay: In vitro cell assay, CellTiter-Glo cell viability, HL-60; format: cell-based, human; details: 10,000 HL-60 cells, 72 h, CTG; 150 nM Compound 5A, 5,000 nM azacitidine, single agent or combination of both
# Experimental: as §1, §2
# [1] = tested on: HL-60 cells (human myeloid leukemia cell line); assay: In vivo efficacy, HL-60 leukemia xenograft model (azacitidine combination, FIG. 5); details: HL-60 s.c. xenograft in mice; Compound 5A 50 mg/kg p.o. qd×19; Azacitidine 2.5 mg/kg i.p. qd 5 days on 2 days off; alone or combined
# Experimental: Mice were inoculated with HL-60 cells (human myeloid leukemia cell line) subcutaneously on the right flank with the single cell suspension of 95% viable tumor cells (1×10^7) in 100 μL IMDM Matrigel mixture (1:1 ratio) without serum for the tumor development. The treatment was started when the mean tumor size reached approximately 222 mm^3, with individual tumor size ranging from 185-245 mm^3. Animals were randomly distributed into treatment groups of 10 animals each and dosed with vehicle and indicated compounds at indicated dosage and frequency shown in FIG. 5 and Table 3. In FIG. 5, the top line (indicated with circles) is Vehicle control, the second from the top line (indicated with triangles) is Azacitidine (2.5 mg/kg 5 mL/kg i.p. qd (5 days on, 2 days off,)), the second from the bottom line (indicated with circles) is Compound 5A (50 mg/kg 10 mL/kg p.o. qd×19) and the bottom line (indicated with triangles) is Compound 5A (50 mg/kg p.o. qd×19)+Azacitidine (2.5 mg/kg i.p. qd 5×3 (5 days on 2 days off)). Tumor volumes were evaluated twice per week to calculate tumor volume over time, and mice were weighed twice per week as a surrogate for signs of toxicity. Tumor growth inhibition (TGI) was calculated using the following equation TGI=(1-(Td−T0)/(Cd−C0))×100%. […]
# MOLM-13 cells = assay: In vitro cell assay, CellTiter-Glo cell viability, MOLM-13; format: cell-based; details: 20,000 MOLM-13 cells, 72 h, CTG; 5 nM Compound 5A, 1,500 nM azacitidine, single agent or combination of both
# Experimental: as §1, §2
# [2] = tested on: DOHH cells (non-Hodgkin's cell line); assay: In vivo efficacy, DOHH non-Hodgkin's model (bendamustine combination, FIG. 8); details: DOHH s.c. xenograft in mice; Compound 5A 100 mg/kg p.o. qd×13; Bendamustine 25 mg/kg i.v. qd×1; alone or combined
# Experimental: Tumor volumes were evaluated twice per week to calculate tumor volume over time, and mice were weighed twice per week as a surrogate for signs of toxicity. Tumor growth inhibition (TGI) was calculated using the following equation TGI=(1−(Td−T0)/(Cd−C0))×100%. Td and Cd are the mean tumor volumes of the treated and control animals, and T0 and C0 are the mean tumor volumes of the treated and control animals at the start of the experiment. The tumor regression was defined as individual tumor volume (TV) decrease (terminal TV compared to initial TV).
# KMS-12-BM cells = assay: In vivo efficacy, KMS-12-BM model (bortezomib combination, FIG. 7); details: KMS-12-BM s.c. xenograft in mice; Compound 5A 50 mg/kg p.o. qd×21; Bortezomib 0.5 mg/kg i.p. BIW; alone or combined
# Experimental: Mice were inoculated with KMS-12-BM cells ([…]) subcutaneously on the right flank with the single cell suspension of 95% viable tumor cells (1×10^7) in 100 μL IMDM Matrigel mixture (1:1 ratio) without serum for the tumor development. The treatment was started when the mean tumor size reached approximately 222 mm^3, with individual tumor size ranging from 185-245 mm^3. Animals were randomly distributed into treatment groups of 10 animals each and dosed with vehicle and indicated compounds at indicated dosage and frequency shown in FIG. 7 and Table 3. In FIG. 7, the top line (indicated with diamonds) is Vehicle control, the second from the top line (indicated with squares) is Compound 5A (50 mg/kg), the second from the bottom line (indicated with “x”) is Bortezomib (0.5 mg/kg) and the bottom line ([…]). Tumor volumes were evaluated twice per week to calculate tumor volume over time, and mice were weighed twice per week as a surrogate for signs of toxicity. Tumor growth inhibition (TGI) was calculated using the following equation TGI=(1−(Td−T0)/(Cd−C0))×100%. Td and Cd are the mean tumor volumes of the treated and control animals, and T0 and C0 are the mean tumor volumes of the treated and control animals at the start of the experiment. The tumor regression was defined as individual tumor volume (TV) decrease (terminal TV compared to initial TV).
# [3] = tested on: HL-60 cells (human myeloid leukemia cell line); assay: In vivo efficacy, HL-60 leukemia xenograft model (cytarabine combination, FIG. 6); details: HL-60 s.c. xenograft in mice; Compound 5A 25 mg/kg p.o. qd×19; Cytarabine 5 mg/kg i.p. qd 5 days on 2 days off; alone or combined
# Experimental: Mice were inoculated with HL-60 cells (human myeloid leukemia cell line) subcutaneously on the right flank with the single cell suspension of 95% viable tumor cells (1×10^7) in 100 μL IMDM Matrigel mixture (1:1 ratio) without serum for the tumor development. The treatment was started when the mean tumor size reached approximately 218 mm^3, with individual tumor size ranging from 185-245 mm^3. Animals were randomly distributed into treatment groups of 10 animals each and dosed with vehicle and indicated compounds at indicated dosage and frequency shown in FIG. 6 and Table 3. In FIG. 6, the top line (indicated with triangles) is Cytarabine (5.0 mg/kg), the second from the top line (indicated with circles) is Vehicle control, the second from the bottom line (indicated with diamonds) is Compound 5A (25 mg/kg) and the bottom line (indicated with circles) is Compound 5A (25 mg/kg p.o. qd×19)+Cytarabine (5 mg/kg i.p. qd 5×3 (5 days on 2 days off)). Tumor volumes were evaluated twice per week to calculate tumor volume over time, and mice were weighed twice per week as a surrogate for signs of toxicity. Tumor growth inhibition (TGI) was calculated using the following equation TGI=(1−(Td−T0)/(Cd−C0))×100%. Td and Cd are the mean tumor volumes of the treated and control animals, and TO and CO are the mean tumor volumes of the treated and control animals at the start of the experiment. […]
smiles,measurement,setting,value
"Nc1ncn([C@@H]2O[C@H](CO)[C@@H](O)[C@H]2O)c(=O)n1 [Azacitidine, azacitidine]",MV4;11 % inhibition,MV4-11 cells,82.9%
same,RS4;11 % inhibition,RS4;11 cells,32.5%
same,HL60 % inhibition,HL-60 cells,21.6%
same,TGI % Day 18,[1],11%
same,MOLM-13 % inhibition,MOLM-13 cells,47.0%
Cn1c(CCCC(=O)O)nc2cc(N(CCCl)CCCl)ccc21 [Bendamustine],TGI % Day 26,[2],44%
"CC(C)C[C@H](NC(=O)[C@H](Cc1ccccc1)NC(=O)c1cnccn1)B(O)O [Bortezomib, bortezomib]",TGI % Day 14,KMS-12-BM cells,46%
Nc1ccn([C@@H]2O[C@H](CO)[C@@H](O)[C@@H]2O)c(=O)n1 [Cytarabine],TGI % Day 18,[3],−6%
